Results: patent US5571799A, “(2'-5') oligoadenylate analogues useful as inhibitors of host-v5.-graft response” (Basco, Ltd., priority 1994, dated 1996)
“Also recorded” adds a separate entry of the source.

Tests used:
[1] = tested on: snake venom phosphodiesterase; assay: Stability to the action of snake venom phosphodiesterase; assay type: in vitro ADME
Procedure: Determination of (2'-5')oligoadenylates and analogues stability to the action of snake venom phosphodiesterase
Upon entering an organism 2'-5'A3 and the analogues are quickly hydrolyzed to monomeric compound(s). Prior to administration of 2'-5'A3 analogues in vivo to animal, it was considered necessary to determine their stability towards snake venom phosphodiesterase in comparison to the parent 2'-5'A3.
The solution of 3 μg of the snake venom phosphodiesterase (Boehringer Mannheim cat. No. 108260) in 30 μl of 0.1 M Tris HCl buffer, containing 0.002 M MgCl2 (pH 8.78) is added to the solution of 4-5·10^-7 M trimer in 100 μl of the same buffer. The solution was left standing at 20° C. At regular intervals, 10 μl samples were taken, heated at 90° C. for 1 minute and preparative thin layer chromatography was performed on the Silufole™ plates, using a 7:1:2 mixture of isopropanol:aqueous ammonia:water.
The spot, corresponding to the initial trimer, was cut out, the substance was extracted with 2 ml of 0.5% solution of the dodecylsulfate sodium salt solution for 2 hours, and the optical density of the solution was determined at 260 nm.

[2] = tested on: T-lymphocytes (murine splenocytes) stimulated with Concanavalin A; assay: In vitro blast-transformation of murine lymphocytes, Con A (T-lymphocyte mitogen), [3H]-thymidine; assay type: cell-based, mouse (CBA); conditions: for DNA synthesis at [^3 H]-thymidine [incorporated counts/min.]: Con A 5 μg/ml
Excerpt: The immune reactions in an organism begins with the division of lymphocytes. In vitro investigation of the lymphocyte blast-transformationreaction under the influence of mitogens makes it possible to use this model system to select chemically synthesized 2'-5'A3 analogues which suppress division of lymphocytes. Using Concanavalin A and lipopolysaccharide as mitogens, the effect of analogues on the division of T- and β-lymphocytes may be investigated.
CBA mice 8-10 weeks old were used for these experiments. A suspension of mouse splenocytes were obtained by gently teasing spleens with forceps. […] Cultures were maintained in 5% CO2 at 37° C. One μCi of ^3 H-thymidine (Isotop®) was added to each well 4 hours before the end of the incubation period. Incorporation of ^3 H-thymidine into cellular DNA was determined by liquid scintillation counting using standard techniques. Oligoadenylate was added to the medium at the beginning of culturing to achieve the final concentration.
(Con A being a mitogen for T-lymphocytes and LPS being a mitogen for β-lymphocytes).

T-killers = T-killers in monkeys after kidney transplantation; assay type: in vivo, Macaque Rh. monkeys; conditions: second group, 50 μg/kg every other day
Procedure: FLOW CYTOFLUOROGRAFIC ANALYSIS OF LYMPHOCYTE SUBSETS
Blood samples (100 μl of whole blood) were placed into a 12×17 tube. To these cells 20 μl of purified monoclonal antibodies were added with specificity for human cytotoxic/suppressor cells anti-Leu-2a (CD8), human helper/inducer anti-Leu-3a (CD4) and FITC conjugated monoclonal antibodies with specificity for natural killer cells-anti-Leu11c (CD16) (Becton Dickinson, San Jose). After 30 minutes incubation on ice, the cells were washed once and 20 μl of goat-antimouse chain phycoerythrin (Sigma P1286) conjugate were added to the tube with anti-Leu-2a and anti-Leu-3a monoclonal antibodies.
After erythrocyte lysing with FACS lysing solution (Becton Dickinson, San Jose) the cells were analyzed on FACScan flow cytometer (Becton Dickinson, San Jose) with scatter gate set on lymphocyte fraction.
(§1) The experiments were performed on 4 year-old Macaque Rh. monkeys. Each cohort consisted of 3 animals. […] The results of the experiments were evaluated clinically: by the presence or absence of urination from the ureterocutaneostoma.
After intravenous anesthesia with Ketalar®, an extraperitoneal access to the left kidney was performed through layer by layer cuts to the left lumbar region. The kidney was excised from the surrounding tissues. […]

IgG, IgA, IgM = assay: Immunoglobulins in monkeys after kidney transplantation; assay type: in vivo, Macaque Rh. monkeys; conditions: 50 μg/kg IV; for IgA: 2 days pre-op. 0.4; for IgM: 2 days pre-op. 0.8; for IgG: 2 days pre-op. 13
Procedure: Serum levels of IgG, IgA, IgM were determined by radial immunodiffusion using antisera against human immunoglobulin A, M, G. The amount of interferon and interleukine-II were determined by the method of Lopez-Botet M. et al., 1982.
as §1
During our experiments we have divided monkeys into two groups, three monkeys to each group. For the first group (2'-5')A2 Ar-epoxy was administered intravenously at concentration of 50 μg/kg two days before the operation and at the second, sixth, and twelfth day after the operation and then every sixth day. […] After transplantation kidney functions were restored within 10 hours.

## Adenylyl (2'-5')adenylyl (2'-5')-9-(2,3-anhydro-β-D-ribofuranosyl) adenine disodium salt [(2'-5')A2 Ar-epoxy]
[1]; 20° C., 0.1 M Tris HCl, 0.002 M MgCl2, pH 8.78
  T 1/2 (time for optical density of initial trimer to decrease by 50%): 16.0 h
[1]; in words, disodium salt
  stability / resistance to phosphodiesterase: significantly more resistant towards hydrolysis by phosphodiesterase; also recorded: more resistant to phosphodiesterase than (2'-5')A2 A^l-epoxy
[1]; vs 2'-5'A3
  resistance to snake venom phosphodiesterase relative to prototype 2'-5'A3: 35 fold
[2]; 5 × 10^-6 M, control 22,296
  DNA synthesis at [^3 H]-thymidine [incorporated counts/min.]: 16,399 counts/min.
[2]; Con A, T-lymphocytes
  inhibition of lymphocyte blast-transformation, in words: suppresses the T-lymphocyte division to a greater extent
[2]; Table 4, 1 × 10^-5 M, control 5,428
  DNA synthesis at [^3 H]-thymidine [incorporated counts/min.]: 4,172 counts/min.
[2]; Table 4, 5 × 10^-6 M, control 5,428
  DNA synthesis at [^3 H]-thymidine [incorporated counts/min.]: 1,733 counts/min.
[2]; Table 4, 5 × 10^-7 M, control 5,428
  DNA synthesis at [^3 H]-thymidine [incorporated counts/min.]: 3,865 counts/min.
[2]; Table 4, 5 × 10^-8 M, control 5,428
  DNA synthesis at [^3 H]-thymidine [incorporated counts/min.]: 5,383 counts/min.
[2]; Table 4, 5 × 10^-9 M, control 5,428
  DNA synthesis at [^3 H]-thymidine [incorporated counts/min.]: 1,599 counts/min.
[2]; Table 4, 5 × 10^-10 M, control 5,428
  DNA synthesis at [^3 H]-thymidine [incorporated counts/min.]: 777 counts/min.
[2]; Table 4, 5 × 10^-11 M, control 5,428
  DNA synthesis at [^3 H]-thymidine [incorporated counts/min.]: 5,271 counts/min.
[2]; Table 5, 1 × 10^-5 M, control 5,108
  DNA synthesis at [^3 H]-thymidine [incorporated counts/min.]: 2,960 counts/min.
[2]; Table 5, 5 × 10^-6 M, control 5,108
  DNA synthesis at [^3 H]-thymidine [incorporated counts/min.]: 4,732 counts/min.
[2]; Table 5, 5 × 10^-7 M, control 5,108
  DNA synthesis at [^3 H]-thymidine [incorporated counts/min.]: 2,237 counts/min.
[2]; Table 5, 5 × 10^-8 M, control 5,108
  DNA synthesis at [^3 H]-thymidine [incorporated counts/min.]: 1,355 counts/min.
[2]; Table 5, 5 × 10^-9 M, control 5,108
  DNA synthesis at [^3 H]-thymidine [incorporated counts/min.]: 6,915 counts/min.
[2]; Table 5, 5 × 10^-10 M, control 5,108
  DNA synthesis at [^3 H]-thymidine [incorporated counts/min.]: 1,425 counts/min.
T-killers
  T-killers, in words: Analogous suppression effect
IgG, IgA, IgM; day 5 post-op.
  IgA: 2.07 g/L
  IgM: 0.75 g/L
  IgG: 12.2 g/L
IgG, IgA, IgM; day 8 post-op.
  IgA: 2.5 g/L
  IgM: 0.86 g/L
  IgG: 12.75 g/L
